The text below walks through data of US20010004460A1, “PROCESS FOR THE PREPARATION OF RICE SEED FOR SOWING” (priority 1995, published 2001).

Data set [1] concerns rice seeds. Put plainly: Stand establishment of pregerminated rice seed treated with mancozeb slurry, flown onto flooded fields. Format: in vivo. Particulars: slurry at 19-22 fluid ounces per hundred pounds of seed.
Data set [2] relates to rice seeds. Put plainly: Seedling growth of pregerminated rice seed coated with gibberellic acid, sown by plane in flooded field.
In data set [3] the test system is rice seeds. Particulars: in vivo. The method, then:
Seed was tested for germination in an incubator and also flown onto a flooded field under standard agricultural practices.

Consider “[[1,2-ethanediylbis[carbamodithioato]](2-)]manganese mixture with [[1,2-ethanediylbis [carbamodithioato]](2—)]zinc [mancozeb]”, for which the “stand of rice plants established” value with rice seeds [1] is “acceptable stand”.
Turning to `C=C1C[C@]23C[C@@]1(O)CC[C@H]2[C@@]12C=C[C@H](O)[C@@](C)(C(=O)O1)[C@H]2[C@@H]3C(=O)O` [gibberellic acid], in the data set on rice seeds [2] (3 to 10 days after sowing), the “size of root relative to shoot” value is listed as “approximately the same size”. In addition, the “resistance of seedlings to wind” value in the data set with rice seeds [2] (3 to 10 days after sowing, located in the soil at a depth of 0 to 2 mm) is on record as “highly resistant to wind”. For the same compound, the “appearance of germinated seeds after machine mixing” value with rice seeds [2] ([…], radicles 1 to 8 mm) is recorded as “appeared undamaged”.
For the compound `N#Cc1nn(-c2c(Cl)cc(C(F)(F)F)cc2Cl)c(N)c1[S+]([O-])C(F)(F)F` (stereo not drawn) [fipronil, 5-amino-1-(2,6-dichloro-4-trifluoromethylphenyl)-4-trifluoromethylsulfinyl-3-cyanopyrazole], in the data set on rice seeds [3], the “appearance of pregerminated seeds after machine mixing” value was “appeared undamaged” and the stand establishment entry was “the same as untreated seed”.
